We go through 44 compounds from ChEMBL document CHEMBL1201862, “PubChem BioAssay data set” (2004).

Activity calls are given as the source filed them.

A word on the AC50: it is the concentration at which the activity in the assay is half-maximal. Broadly, the EC50 is the midpoint of the concentration-response curve.

Assay [1] concerns the target Cytochrome P450 3A4 (Homo sapiens, UniProt P08684).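 Also: CYP3A4 tested as one member of a cytochrome P450 panel screen.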
Assay [2] addresses Cytochrome P450 2C9 (Homo sapiens, UniProt P11712).
The target of assay [3] is T1, Cytochrome P450 1A2 (Homo sapiens, UniProt P05177).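 Also: PubChem cytochrome P450 panel assay, CYP1A2 panel member.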
T1 sequence (P05177 whole entry): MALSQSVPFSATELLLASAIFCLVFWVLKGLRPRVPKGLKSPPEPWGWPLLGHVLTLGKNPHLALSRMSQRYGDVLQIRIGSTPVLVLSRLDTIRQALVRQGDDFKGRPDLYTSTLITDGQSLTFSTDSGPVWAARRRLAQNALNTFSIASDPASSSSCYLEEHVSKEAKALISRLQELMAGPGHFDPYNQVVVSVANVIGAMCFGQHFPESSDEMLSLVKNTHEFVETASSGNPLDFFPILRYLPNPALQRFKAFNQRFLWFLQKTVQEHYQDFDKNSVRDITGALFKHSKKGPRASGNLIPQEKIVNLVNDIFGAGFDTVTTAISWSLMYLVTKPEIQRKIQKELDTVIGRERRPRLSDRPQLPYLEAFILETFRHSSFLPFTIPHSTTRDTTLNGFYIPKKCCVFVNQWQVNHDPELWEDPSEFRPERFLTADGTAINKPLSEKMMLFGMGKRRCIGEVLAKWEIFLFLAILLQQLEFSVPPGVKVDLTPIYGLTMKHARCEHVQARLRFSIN

Assay [4] is described as follows: Luminescence Cell-Based Dose Retest to Confirm Inhibitors of Cancer Stem Cells. [Related pubchem assays (depositor defined):AID2717, AID2721]. To be noted: Homo sapiens. The class given is functional.
Assay [5] concerns Streptococcus sp. 'group A'. The experiment in a line: Streptococcus pyogenes SK(-)GAS viability under kanamycin – luminescence, BacTiterGlo, confirmation, counter-screen for streptokinase expression inhibitor project, dose response (AID 1900). In kind it is functional, organism-based.
The test system of assay [6] is Streptococcus. The assay is described as follows: GAS UMAA2166 growth inhibition – luminescence, BacTiterGlo, counter-screen for streptokinase expression inhibitor project, dose response (AID 1915).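 Also: potency for reduction of bacterial viability or growth.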 In kind it is functional, organism-based.
Assay [7] deals with T2, Streptokinase A (Streptococcus pyogenes serotype M1, UniProt P10520).
T2 sequence (P10520 whole entry): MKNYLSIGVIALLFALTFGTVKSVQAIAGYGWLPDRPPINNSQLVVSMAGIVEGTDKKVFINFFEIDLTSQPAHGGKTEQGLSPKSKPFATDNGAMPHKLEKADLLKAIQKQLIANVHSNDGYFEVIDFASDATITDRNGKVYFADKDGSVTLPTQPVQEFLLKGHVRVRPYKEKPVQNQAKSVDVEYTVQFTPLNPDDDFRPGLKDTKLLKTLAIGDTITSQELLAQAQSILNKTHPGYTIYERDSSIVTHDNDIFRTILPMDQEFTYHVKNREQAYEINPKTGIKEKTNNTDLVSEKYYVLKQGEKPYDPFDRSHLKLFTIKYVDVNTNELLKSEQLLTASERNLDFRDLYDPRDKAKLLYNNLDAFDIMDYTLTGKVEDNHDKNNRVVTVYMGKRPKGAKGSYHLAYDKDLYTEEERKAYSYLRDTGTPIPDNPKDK
The assay is described as follows: viability-normalized secreted streptokinase activity reduction – plasminogen activation absorbance, OD405, dose response (AID 1914).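 Also: secreted streptokinase activity via plasminogen activation per viability signal from cell pellet.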 The class given is functional, Streptococcus pyogenes M1 GAS.

The target in assay [8] is Cytochrome P450 2C19 (Homo sapiens, UniProt P33261). The assay is described as follows: Cytochrome panel assay with activity outcomes. Panel member name: p450-cyp2c19 Compounds with AC50 equal or less than 10 uM are considered active. In kind it is functional. The conditions noted are these: read-out: AC50.
Chain of Cytochrome P450 2C19 (P33261 whole entry): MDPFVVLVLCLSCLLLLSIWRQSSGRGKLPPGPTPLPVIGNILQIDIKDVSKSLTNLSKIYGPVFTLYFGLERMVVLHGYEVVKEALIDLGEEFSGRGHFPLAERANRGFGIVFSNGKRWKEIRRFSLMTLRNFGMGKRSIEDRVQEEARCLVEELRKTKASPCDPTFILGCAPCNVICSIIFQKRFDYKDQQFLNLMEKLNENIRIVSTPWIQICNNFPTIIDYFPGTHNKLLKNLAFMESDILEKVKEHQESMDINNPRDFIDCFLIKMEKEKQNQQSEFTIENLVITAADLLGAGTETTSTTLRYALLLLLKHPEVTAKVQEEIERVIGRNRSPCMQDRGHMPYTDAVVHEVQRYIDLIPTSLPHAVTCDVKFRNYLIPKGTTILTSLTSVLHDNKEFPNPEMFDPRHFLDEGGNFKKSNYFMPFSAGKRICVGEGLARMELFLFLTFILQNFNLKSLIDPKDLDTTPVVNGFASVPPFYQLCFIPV
Assay [9] concerns the target Cytochrome P450 2D6 (Homo sapiens, UniProt P10635).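 Also: CYP2D6 member of a cytochrome P450 panel assay.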
Assay [10] deals with T3, Heat shock factor protein 1 (Mus musculus, UniProt P38532).
T3 sequence (P38532 whole entry): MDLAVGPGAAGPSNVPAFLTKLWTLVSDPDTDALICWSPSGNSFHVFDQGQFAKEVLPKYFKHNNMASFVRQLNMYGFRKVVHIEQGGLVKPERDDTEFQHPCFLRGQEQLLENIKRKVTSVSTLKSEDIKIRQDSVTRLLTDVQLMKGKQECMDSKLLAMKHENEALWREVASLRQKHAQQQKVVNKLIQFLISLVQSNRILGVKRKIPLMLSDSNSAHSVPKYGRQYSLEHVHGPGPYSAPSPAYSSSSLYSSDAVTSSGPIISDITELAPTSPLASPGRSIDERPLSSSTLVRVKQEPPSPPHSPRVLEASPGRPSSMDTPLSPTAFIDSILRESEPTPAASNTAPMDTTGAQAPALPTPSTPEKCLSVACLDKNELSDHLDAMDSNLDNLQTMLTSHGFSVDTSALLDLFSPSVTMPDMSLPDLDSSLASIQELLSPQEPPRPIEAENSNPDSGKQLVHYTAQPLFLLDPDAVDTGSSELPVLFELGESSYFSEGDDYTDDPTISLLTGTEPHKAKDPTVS
The assay is described as follows: decrease of HSF1-responsive luciferase luminescence – cell-based, NIH3T3, dose retest, confirmation (AID 2382).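 Also: NIH3T3 fibroblasts with HSF1-driven luciferase reporter stressed by proteasome inhibitor MG132; luminescence from HSF1-driven luciferase expression after 8 hours of MG132 stress.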 In kind it is functional.

Chain of Cytochrome P450 3A4 (P08684 whole entry): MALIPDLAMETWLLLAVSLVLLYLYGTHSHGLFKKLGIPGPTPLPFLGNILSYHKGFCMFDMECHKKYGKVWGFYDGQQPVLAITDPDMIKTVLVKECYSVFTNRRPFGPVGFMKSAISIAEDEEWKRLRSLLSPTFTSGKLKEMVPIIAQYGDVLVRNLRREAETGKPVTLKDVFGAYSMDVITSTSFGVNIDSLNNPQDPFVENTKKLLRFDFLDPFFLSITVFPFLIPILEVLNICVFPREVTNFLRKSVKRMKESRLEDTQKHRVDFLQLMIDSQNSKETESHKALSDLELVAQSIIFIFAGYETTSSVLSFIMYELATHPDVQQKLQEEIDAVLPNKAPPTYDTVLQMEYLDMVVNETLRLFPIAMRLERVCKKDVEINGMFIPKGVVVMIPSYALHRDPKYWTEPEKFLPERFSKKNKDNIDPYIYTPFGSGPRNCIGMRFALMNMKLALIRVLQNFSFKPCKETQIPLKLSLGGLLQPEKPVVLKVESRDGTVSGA
Chain of Cytochrome P450 2C9 (P11712 whole entry): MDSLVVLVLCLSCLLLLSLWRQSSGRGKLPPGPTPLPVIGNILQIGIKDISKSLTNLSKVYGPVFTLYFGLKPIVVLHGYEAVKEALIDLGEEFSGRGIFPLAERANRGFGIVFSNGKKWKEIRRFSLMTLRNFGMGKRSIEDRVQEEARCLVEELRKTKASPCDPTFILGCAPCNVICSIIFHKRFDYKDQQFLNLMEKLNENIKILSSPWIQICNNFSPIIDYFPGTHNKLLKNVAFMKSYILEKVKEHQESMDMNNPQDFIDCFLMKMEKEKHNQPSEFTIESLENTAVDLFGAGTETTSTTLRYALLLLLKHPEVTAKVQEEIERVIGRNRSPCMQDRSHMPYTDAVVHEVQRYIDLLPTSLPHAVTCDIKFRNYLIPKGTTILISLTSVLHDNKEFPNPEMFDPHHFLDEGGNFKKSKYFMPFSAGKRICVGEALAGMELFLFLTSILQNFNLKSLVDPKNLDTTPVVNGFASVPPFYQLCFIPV
Chain of Cytochrome P450 2D6 (P10635 whole entry): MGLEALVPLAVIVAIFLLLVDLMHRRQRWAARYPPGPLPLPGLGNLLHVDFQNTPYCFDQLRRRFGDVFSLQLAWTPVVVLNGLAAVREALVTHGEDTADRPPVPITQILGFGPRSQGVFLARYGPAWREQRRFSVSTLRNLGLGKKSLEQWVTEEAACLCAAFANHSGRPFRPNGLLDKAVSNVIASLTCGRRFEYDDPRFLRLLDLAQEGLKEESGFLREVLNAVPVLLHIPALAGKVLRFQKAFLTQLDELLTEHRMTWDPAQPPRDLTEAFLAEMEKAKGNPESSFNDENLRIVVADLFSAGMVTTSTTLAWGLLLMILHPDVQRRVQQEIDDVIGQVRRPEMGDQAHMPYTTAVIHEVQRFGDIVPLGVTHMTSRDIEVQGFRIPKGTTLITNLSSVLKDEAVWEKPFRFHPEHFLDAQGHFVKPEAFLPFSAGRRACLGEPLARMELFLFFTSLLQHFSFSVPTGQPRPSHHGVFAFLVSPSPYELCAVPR

`C[C@]1(C2CCCC2)Cc2cc(OCC(=O)O)c(Cl)c(Cl)c2C1=O`: the AC50 is 12.6 µM (inconclusive) in [1] and 39.8 µM (inconclusive) in assay [2].

For the compound `COc1ccccc1-c1nccc(NCc2cnc(C)cn2)n1`, the AC50 in assay [1] is 39.8 µM (inconclusive).

Turning to `CCNc1ncc2nc(-c3ccc(Cl)cc3)c(=O)n(-c3ccccc3)c2n1`, in [3], the concentration at half-maximal activity (AC50) is 1 µM (inconclusive).

In the case of `COc1ccc(/C=C2\C(=O)c3ccccc3OC2c2ccccc2)cc1` (centres undefined), the AC50 in assay [4] is 1.12 µM (active).

For the compound `Cl/C(=N\c1cccc2ccccc12)N(c1ccccc1)c1ccccc1`, the AC50 in [1] was 3.98 µM (inconclusive); in [3], 1 µM (inconclusive).

Regarding `CCCCNC(=O)c1cn(CC(C)C)c(=O)c2c1c1ccccc1n2C`, the EC50 was 15.5 µM (active) in assay [5], > 150 µM (not active) in assay [6] and > 150 µM (not active) in assay [7].

As to `COC(=O)[C@@]1(Cc2ccccc2)[C@H]2c3cc(C(=O)N4CCCC4)n(Cc4c(CO)ncc(C)c4O)c3C[C@H]2CN1C(=O)c1ccccc1`, in assay [3], the AC50 was 5.01 µM (inconclusive).

For the compound `O=C(Nc1ccc(Cl)cc1C(=O)c1ccccc1)c1ccco1`, the AC50 in assay [1] is 22.4 µM (inconclusive); in [2], 3.98 µM (inconclusive).

Take `CCC12C=CCN3CCC4(c5cc(Br)c(OC)cc5N(C)C4C(O)(C(=O)OC)C1OC(C)=O)C32` (centres undefined): the AC50 was 39.8 µM (inconclusive) in assay [1], 22.4 µM (inconclusive) in [2] and 11.2 µM (inconclusive) in [8].

Regarding `OCCCNc1nc(-c2ccccc2)c2cc(Br)ccc2n1`, the AC50 in assay [4] was 24 µM (active).

Consider `O=C(c1ccc(CSc2ccccc2)cc1)N1CCN(c2ccccc2)CC1`, for which the AC50 in [4] is 3.26 µM (active).

Take `CN1CCN(c2ncc3nc(-c4cccs4)c(=O)n(C[C@H]4CCCO4)c3n2)CC1`: the AC50 in assay [1] is 10 µM (inconclusive).

In the case of `Oc1c(C(O)(c2ccccc2)c2ccc3ccccc3c2O)ccc2ccccc12`, the AC50 is 1 µM (inconclusive) in assay [3] and 3.98 µM (inconclusive) in [9].

As to `O=C1C2C(c3ccccc3)CC=CC2[C@H](c2ccc(C(F)(F)F)cc2)N1Cc1ccccc1` (some centres undefined), the AC50 in assay [4] was 5.21 µM (active).

`CC(=O)Nc1cccc(C(=O)OC(C(=O)c2ccc(C)c(C)c2)c2ccccc2)c1` (centres undefined): the values for the concentration at half-maximal activity (AC50) in [3] and in [9] were 22.4 µM (inconclusive) and 17.8 µM (inconclusive), respectively.

As for `CC1(C)Cc2c(sc3c2C(=O)N(c2ccccc2)C2=NCCN23)CS1`, in assay [3], the AC50 was 22.4 µM (inconclusive).

Consider `Cn1c(OCc2ccc3c(c2)OCO3)nc2c1c(=O)n(Cc1ccc(Cl)c(Cl)c1)c(=O)n2C`, for which the concentration at half-maximal activity (AC50) in [3] was 14.1 µM (inconclusive).

In the case of `CC(C)(C)N(Cc1ccccc1)C(=O)c1cc2ccccc2o1`, the AC50 in [4] was 0.407 µM (active).

For `CCOC(=O)c1sc2c(c1C)c(=O)c(C(=O)OCC)cn2CC`, the AC50 in assay [3] was 25.1 µM (inconclusive).

Consider `Cc1cc2nc(CSc3ccccc3)cc(O)n2n1`, for which, in [7], the EC50 is listed as > 150 µM (not active).

Regarding `O=C(Nc1ccc2c(c1)OCO2)c1cc(-c2cccc(O)c2)on1`, the AC50 in assay [4] was 0.715 µM (active).

Take `NNC(=O)c1nn(-c2ccc(Cl)cc2)ccc1=O`: the AC50 in assay [1] is 25.1 µM (inconclusive).

As to `COc1ccc(-c2cc([C@H]3[C@@H]4C=CCC[C@@]4(C)C(=O)N3Cc3ccccc3)ccc2F)cc1OC`, the AC50 in assay [4] was 3.92 µM (active).

For the compound `COc1ccc(NC(=O)CSc2nncn2C)c([N+](=O)[O-])c1`, the values for the AC50 in assay [1] and in [2] were 22.4 µM (inconclusive) and 14.1 µM (inconclusive), respectively.

Turning to `CCCC(c1nnnn1CC1CCCO1)N1CCN(c2cc(Cl)ccc2C)CC1` (centres undefined), in assay [4], the half-maximal activity concentration (AC50) was 3.53 µM (active).

For the compound `COC(=O)c1ccc(CN(c2ccc(C(=O)O)c(O)c2)S(=O)(=O)c2ccc(Cl)c([N+](=O)[O-])c2)cc1`, the values for the EC50 in [5] and in assay [6] were 1.48 µM (active) and 5.96 µM (active), respectively. In addition, in [4], the AC50 was 4.38 µM (active).

In the case of `CC(=O)NCCNc1ncnc2ccc(-c3ccc(C(=O)N(C)C)cc3)cc12`, the AC50 in assay [3] is 25.1 µM (inconclusive).

With `O=C1[C@H]2[C@H]3[C@H](O)[C@H](O)C/C(=N/OC[C@@H](O)COCc4ccco4)[C@H]3CC[C@@H]2C(=O)N1C1CCCCC1`, the AC50 in assay [1] was 3.98 µM (inconclusive).

On to `O=C(CSc1nnc(CNc2ccc(F)cc2)o1)N1c2ccccc2Sc2ccccc21`, for which, in [3], the AC50 is 10 µM (inconclusive).

In the case of `COc1cccc(-c2sc3ccc(OC)cc3c2C#CC2(O)CCCCC2)c1`, the AC50 in assay [4] was 3.74 µM (active).

For `CC1CCCC(NC(=O)C2CCN(S(=O)(=O)N3CCC4(CC3)OCCO4)CC2)C1C` (centres undefined), the results for the AC50 in assay [1], in assay [2] and in assay [8] were 14.1 µM (inconclusive), 39.8 µM (inconclusive) and 6.31 µM (inconclusive), respectively.

For `Cc1ccccc1NS(=O)(=O)c1ccc2ncc(C(=O)N(C)Cc3ccco3)c(O)c2c1`, the figures for the AC50 in assay [1] and in assay [9] were 0.794 µM (inconclusive) and 17.8 µM (inconclusive), respectively.

With `Cc1cccc(NC(=S)c2nc3ccccc3s2)c1`, the figures for the AC50 in [1] and in [9] were 3.98 µM (inconclusive) and 35.5 µM (inconclusive), respectively.

Consider `CCCCOC(=O)CSCC(=O)Nc1cc(C)on1`, for which the half-maximal activity concentration (AC50) was 25.1 µM (inconclusive) in [3] and 2.51 µM (inconclusive) in [2]. Moreover, the EC50 in assay [10] was > 195 µM (not active).

Regarding `CCOc1ccc(-c2nnc3ccc(SCC(=O)NCc4ccco4)nn23)cc1`, the concentration at half-maximal activity (AC50) is 7.94 µM (inconclusive) in assay [1], 15.8 µM (inconclusive) in assay [3] and 1 µM (inconclusive) in assay [8].

Regarding `Oc1nc(Nc2cccc(Cl)c2)sc1/C=C1\C=Nc2ccccc21`, the AC50 in assay [4] is 1.91 µM (active).

For `CCc1nc(N2CCN(Cc3ccc4c(c3)OCO4)CC2)c2oc3ccccc3c2n1`, in assay [4], the AC50 is 2.71 µM (active).

As to `CC(C)Sc1cc(N2CCOCC2)nc(-c2ccc(Cl)cc2)n1`, the figures for the concentration at half-maximal activity (AC50) in assay [1], in assay [2] and in assay [8] were 17.8 µM (inconclusive), 11.2 µM (inconclusive) and 11.2 µM (inconclusive), respectively.

For the compound `Cc1ccc(CCN2CC(C(=O)N3CCC4(CC3)OCCO4)CC2=O)cc1` (centres undefined), the concentration at half-maximal activity (AC50) in assay [1] was 17.8 µM (inconclusive); in assay [2] it was 12.6 µM (inconclusive).

On to `COc1ccc(/C=N/NC(=O)CCc2ccccc2)cc1O`, for which the AC50 in assay [1] was 22.4 µM (inconclusive); in assay [8], 15.8 µM (inconclusive).

As to `Cc1ccc(/N=C/c2cc(C)n(C3CCCC3)c2C)cc1`, in [1], the AC50 was 20 µM (inconclusive).

`CO/N=C/C(=C\Nc1ccccc1)c1ncc(C(F)(F)F)cc1Cl`: the AC50 in assay [1] is 22.4 µM (inconclusive).

Turning to `O=C(O)[C@H]1CN(CCCP(=O)(O)O)CCN1`, in assay [3], the AC50 is 39.8 µM (inconclusive).

For `CN(C)c1cc2c(Nc3ccc4c(cnn4Cc4ccccc4)c3)ncnc2cn1` [GW282974X], the AC50 in assay [8] is 25.1 µM (inconclusive); in assay [9], 31.6 µM (inconclusive).
